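48-hour exposure; five concentrations; linearly interpolated endpoints. The concentration for 50% growth inhibition is given as GI50.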 Active and inactive are the calls of the source. Cut-off read from the data, not from the text of the source: active = GI50 up to about 1.1 µM and inactive = higher.
Columns and labels:
Experiment in all cases: inhibition of tumour cell growth, NCI panel, 48 h
HOP-62 = system: HOP-62
COLO 205 = system: COLO 205
HL-60 = system: HL-60
RXF 393 = system: RXF 393
NCI-H23 = system: NCI-H23
KM12 = system: KM12
UACC-62 = system: UACC-62
786-0 = system: 786-0
Malme-3M = system: Malme-3M
OVCAR-4 = system: OVCAR-4
A498 = system: A498
UACC-257 = system: UACC-257
ACHN = system: ACHN
SK-MEL-2 = system: SK-MEL-2
EKVX = system: EKVX
K562 = system: K562
M14 = system: M14
MDA-MB-231 = system: MDA-MB-231
MDA-MB-435 = system: MDA-MB-435

Measured: GI50

O=C(O)/C=C/C(=O)N1C/C(=C\c2ccccc2)C(=O)/C(=C/c2ccccc2)C1
inactive: HOP-62 23.4 µM | COLO 205 10.2 µM | HL-60 7.96 µM | RXF 393 5.05 µM | NCI-H23 9.71 µM | KM12 2.55 µM | UACC-62 2.97 µM | 786-0 3.3 µM | Malme-3M 4.72 µM | OVCAR-4 7.43 µM | A498 20.1 µM | UACC-257 7.18 µM | ACHN 8.13 µM | SK-MEL-2 12.6 µM | EKVX 23.5 µM | K562 2.37 µM | M14 3.4 µM

CCOc1ccc(/N=C/C=C(\Cl)c2ccc3ccccc3c2)cc1
inactive: HOP-62 15.3 µM | COLO 205 16.7 µM | HL-60 8.59 µM | RXF 393 15.3 µM | NCI-H23 10.6 µM | MDA-MB-231 15.4 µM | KM12 16.3 µM | UACC-62 15.8 µM | 786-0 12.8 µM | MDA-MB-435 19.4 µM | Malme-3M 14.2 µM | OVCAR-4 10.6 µM | A498 > 58.3 µM | UACC-257 15.9 µM | ACHN 17.7 µM | SK-MEL-2 19.6 µM | EKVX 27.2 µM | K562 8.55 µM | M14 20.8 µM

Cc1ccc(C)c(NC(=O)CC/C(=N\NC(=O)c2c(O)ccc3ccccc23)C(C)C(=O)c2ccc(O)cc2)c1 (stereo not given)
inactive: HOP-62 49.5 µM | COLO 205 25.2 µM | HL-60 5.26 µM | RXF 393 51.9 µM | NCI-H23 31.1 µM | KM12 51.2 µM | UACC-62 17.3 µM | 786-0 28.5 µM | Malme-3M 34.8 µM | OVCAR-4 29.9 µM | A498 60.8 µM | UACC-257 31.9 µM | ACHN 25.2 µM | SK-MEL-2 24.7 µM | K562 32.8 µM | M14 16.9 µM

Brc1cc(C2OCCCO2)ccc1OCc1ccccc1
inactive: HOP-62 43.9 µM | COLO 205 27.4 µM | HL-60 25.2 µM | RXF 393 67.9 µM | NCI-H23 45.6 µM | KM12 33.7 µM | UACC-62 47.9 µM | 786-0 40.4 µM | Malme-3M 31.8 µM | OVCAR-4 31.2 µM | A498 > 100 µM | UACC-257 31.9 µM | ACHN 73.6 µM | SK-MEL-2 81.7 µM | EKVX 52.8 µM | K562 34.5 µM | M14 33.5 µM

CN(C)c1nncc2[nH]cnc12
inactive: HOP-62 > 100 µM | COLO 205 > 100 µM | HL-60 > 100 µM | RXF 393 > 100 µM | NCI-H23 > 100 µM | MDA-MB-231 > 100 µM | KM12 74.8 µM | UACC-62 > 100 µM | 786-0 > 100 µM | MDA-MB-435 > 100 µM | A498 > 100 µM | UACC-257 > 100 µM | ACHN > 100 µM | SK-MEL-2 > 100 µM | EKVX > 100 µM | K562 > 100 µM | M14 > 100 µM

N#C/C(=C\c1cc(OCc2ccccc2)c(OCc2ccccc2)cn1)C(N)=O
inactive: HOP-62 > 100 µM | COLO 205 > 100 µM | HL-60 16 µM | RXF 393 > 100 µM | NCI-H23 > 100 µM | KM12 > 100 µM | UACC-62 > 100 µM | 786-0 > 100 µM | Malme-3M > 100 µM | OVCAR-4 > 100 µM | A498 > 100 µM | UACC-257 > 100 µM | ACHN > 100 µM | SK-MEL-2 > 100 µM | EKVX > 100 µM | K562 26.2 µM | M14 > 100 µM

COc1cc(CNc2cnc3ccc(N)cc3n2)cc(OC)c1OC
inactive: HOP-62 > 100 µM | COLO 205 > 100 µM | HL-60 36.3 µM | RXF 393 > 100 µM | NCI-H23 > 100 µM | KM12 > 100 µM | UACC-62 > 100 µM | 786-0 > 100 µM | Malme-3M > 100 µM | OVCAR-4 > 100 µM | A498 > 100 µM | UACC-257 > 100 µM | ACHN > 100 µM | SK-MEL-2 > 100 µM | EKVX > 100 µM | K562 36.3 µM | M14 > 100 µM

CC(C)c1c(O)c(O)c2c(c1O)C(=O)C(O)=C1C(C)(C)CCC[C@@]12C
inactive: HOP-62 8.61 µM | COLO 205 1.97 µM | HL-60 2.05 µM | RXF 393 2.86 µM | NCI-H23 2.92 µM | MDA-MB-231 2.92 µM | KM12 3.44 µM | UACC-62 3.86 µM | 786-0 3.44 µM | MDA-MB-435 2.96 µM | Malme-3M 3.88 µM | OVCAR-4 3.26 µM | A498 3.84 µM | UACC-257 2.67 µM | ACHN 2.96 µM | SK-MEL-2 3.76 µM | EKVX 2.9 µM | K562 2.77 µM | M14 5.47 µM

COC(=O)/C(=N\NC(N)=S)C(C#N)c1ccccc1 (stereo not given)
inactive: HOP-62 > 100 µM | COLO 205 > 100 µM | HL-60 > 100 µM | RXF 393 > 100 µM | NCI-H23 > 100 µM | KM12 > 100 µM | UACC-62 > 100 µM | 786-0 > 100 µM | Malme-3M > 100 µM | OVCAR-4 > 100 µM | A498 > 100 µM | UACC-257 > 100 µM | ACHN > 100 µM | SK-MEL-2 > 100 µM | EKVX > 100 µM | K562 > 100 µM | M14 > 100 µM

O=C(/C=C/c1c(O)ccc2ccccc12)c1ccccc1Cl
inactive: HOP-62 76.6 µM | COLO 205 17.8 µM | HL-60 11.1 µM | RXF 393 26.2 µM | NCI-H23 19.8 µM | KM12 38.5 µM | UACC-62 15.8 µM | 786-0 60.8 µM | Malme-3M 18.5 µM | OVCAR-4 39 µM | A498 82 µM | UACC-257 19.7 µM | ACHN 34.3 µM | SK-MEL-2 27.7 µM | EKVX 67.9 µM | K562 20.2 µM | M14 18.5 µM

NC1(CCCCCCCCCCC(=O)O)CNCCNCCNCCNC1
inactive: HOP-62 23.1 µM | COLO 205 15.6 µM | HL-60 15.9 µM | RXF 393 27.7 µM | NCI-H23 > 100 µM | KM12 48.9 µM | UACC-62 47.6 µM | 786-0 36.7 µM | Malme-3M 78.3 µM | OVCAR-4 30.9 µM | A498 13.7 µM | UACC-257 > 100 µM | ACHN 55.3 µM | SK-MEL-2 52.5 µM | EKVX 94.6 µM | K562 33.8 µM | M14 75.3 µM
